Source: ChEMBL document CHEMBL1132423, “Diethylcarbamoylating/nitroxylating agents as dual action inhibitors of aldehyde dehydrogenase: a disulfiram-cyanamide merger” (J Med Chem, 1999)

Molecular target: T1, Aldehyde dehydrogenase 1A1 (Rattus norvegicus) (UniProt P51647)
T1 sequence (whole entry): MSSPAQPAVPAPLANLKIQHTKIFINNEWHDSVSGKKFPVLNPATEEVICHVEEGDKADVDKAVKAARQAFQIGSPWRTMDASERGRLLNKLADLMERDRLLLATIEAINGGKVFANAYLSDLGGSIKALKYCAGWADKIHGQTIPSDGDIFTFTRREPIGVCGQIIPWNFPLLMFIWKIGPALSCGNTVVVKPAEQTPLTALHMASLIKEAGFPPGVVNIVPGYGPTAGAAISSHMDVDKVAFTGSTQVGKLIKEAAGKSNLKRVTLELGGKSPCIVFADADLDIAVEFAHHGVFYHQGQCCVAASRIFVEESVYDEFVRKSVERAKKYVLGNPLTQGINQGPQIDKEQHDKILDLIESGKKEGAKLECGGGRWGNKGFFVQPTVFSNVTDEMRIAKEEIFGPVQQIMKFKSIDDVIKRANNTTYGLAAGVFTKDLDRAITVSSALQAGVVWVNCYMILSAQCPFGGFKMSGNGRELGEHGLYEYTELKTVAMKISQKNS
Experiment: Percent inhibition of rat hepatic mitochondrial […] dehydrogenase
Details: concentration not given here

inhibition: > 70%
Compound: CCOC(=O)N(OC(=O)N(CC)CC)S(=O)(=O)c1ccccc1
